Experimental data from publication PMC9814550, “Exo-selective intermolecular Diels–Alder reaction by PyrI4 and AbnU on non-natural substrates” (Communications Chemistry, 2021).
Like-named read-outs stand apart in the source and are kept apart here.

Legend:
[1] = target: T1, AbnU (Parafrankia colletiae, UniProt A0A1S1R073); test: tryptophan fluorescence quenching (W114); assay type: binding
T1 construct: gene CC117_14200; N-terminal poly-His tag, pET28a(+), codon-optimised synthetic gene, E. coli; dimer

[2] = target: T2, PyrI4 (Streptomyces rugosporus, UniProt K7QVW7, E65A); test: LC-SRM of product 3a; assay type: biochemical; details: co-substrate 2
T2 construct: full length, N-terminal poly-His tag, pET28a(+), codon-optimised synthetic gene, E. coli
T2 sequence (K7QVW7 whole entry E65A): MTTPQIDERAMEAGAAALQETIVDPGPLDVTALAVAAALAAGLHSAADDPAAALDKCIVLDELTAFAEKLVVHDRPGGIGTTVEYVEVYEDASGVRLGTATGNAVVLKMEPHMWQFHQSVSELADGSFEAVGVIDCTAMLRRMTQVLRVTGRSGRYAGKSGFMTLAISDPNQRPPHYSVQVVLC

T1 sequence (A0A1S1R073 entry or part of it): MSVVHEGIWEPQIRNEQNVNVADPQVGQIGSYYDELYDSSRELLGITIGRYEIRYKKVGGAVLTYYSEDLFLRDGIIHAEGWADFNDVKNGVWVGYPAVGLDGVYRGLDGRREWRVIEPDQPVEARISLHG

| Kd ([1]; read-out: KD) [µM] | Compound | Kd [1] [µM] | LC-SRM of product 3a [2] |
| --- | --- | --- | --- |
|  | C=CC(=O)N(C)C [compound 2, N,N-dimethylacrylamide] | 6320 ± 280 |  |
| 1010 ± 205 | COC(=O)c1ccc(COC(=O)NC2C=CCCC2C(=O)N(C)C)cc1 (mixture of isomers) [3a] |  |  |
| 729 ± 117 | C=C/C=C/NC(=O)OCc1ccc(C(=O)OC)cc1 [1a, diene 1a] |  | Stereoselectivity is further compromised with E65A mutant |
